Laboratory results taken from the supplement of paper PMC10307832.

What was measured:
Assay in all cases: relative viability (nuclei count vs DMSO), 5 days (fraction); higher = more cells survive
[1] = compound: COc1cc(Nc2ncc(F)c(Nc3ccc4c(n3)NC(=O)C(C)(C)O4)n2)cc(OC)c1OC [R406] + O=C(c1cc(Cc2n[nH]c(=O)c3ccccc23)ccc1F)N1CCN(C(=O)C2CC2)CC1 [Olaparib] (partner 8 µM)
In short: (§1)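 A single step with final 0.05% Triton X-100, 1% formaldehyde and 1 ug/ml Hoechst fixed the cells and stained nuclei 5 days after treatment. Lung cancer cell lines in 1536-well plates had been treated by pin tool the day after seeding with one drug alone or a fixed anchor-drug dose plus five library-drug doses (not always all listed) in √10 steps, and nuclei were counted on 4× images. Relative viability is the ratio of nuclei in treated wells to nuclei in vehicle wells, taken as the median of duplicate plates.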

[2] = compound: O=C(/C=C/c1cccnc1)NCCCCC1CCN(C(=O)c2ccccc2)CC1 [Daporinad] + CC(C)C[C@H](NC(=O)[C@H](Cc1ccccc1)NC(=O)c1cnccn1)B(O)O [Bortezomib] (partner 0.002 µM)
In short: as §1

[3] = compound: COc1cc(Nc2ncc(F)c(Nc3ccc4c(n3)NC(=O)C(C)(C)O4)n2)cc(OC)c1OC [R406] + Cc1nc(NC(=O)N2CCC[C@H]2C(N)=O)sc1-c1ccnc(C(C)(C)C(F)(F)F)c1 [Alpelisib] (partner 2 µM)
In short: as §1

[4] = compound: O=C(/C=C/c1cccnc1)NCCCCC1CCN(C(=O)c2ccccc2)CC1 [Daporinad] + C[C@]1(O)C[C@@H](c2nc(-c3ccc4ccc(-c5ccccc5)nc4c3)c3c(N)nccn32)C1 [Linsitinib] (partner 1 µM)
In short: as §1

Work on NCI-H1915 yielded a relative viability ([1]; first compound 0.08 µM) of 0.286, a relative viability ([1]; first compound 0.253 µM) of 0.267 and a relative viability ([1]; first compound 0.8 µM) of 0.263. It also gave a relative viability ([1]; first compound 2.53 µM) of 0.237, a relative viability ([1]; first compound 8 µM) of 0.237 and a relative viability ([2]; first compound 0.0005 µM) of 0.987. It also gave a relative viability ([2]; first compound 0.001581 µM) of 1.05, a relative viability ([2]; first compound 0.005 µM) of 0.961 and a relative viability ([2]; first compound 0.01581 µM) of 0.883. For the same cell line, the relative viability ([3]; first compound 0.08 µM) was 1.08, the relative viability ([3]; first compound 0.253 µM) was 1.12 and the relative viability ([3]; first compound 0.8 µM) was 1.04. It also gave a relative viability ([3]; first compound 2.53 µM) of 1.02, a relative viability ([3]; first compound 8 µM) of 1.01 and a relative viability ([4]; first compound 0.0005 µM) of 1.13. It also gave a relative viability ([4]; first compound 0.001581 µM) of 1.17, a relative viability ([4]; first compound 0.005 µM) of 1.09 and a relative viability ([4]; first compound 0.01581 µM) of 1.11.
With NCI-H647 the relative viability ([1]; first compound 0.08 µM) was 0.423, the relative viability ([1]; first compound 0.253 µM) was 0.633 and the relative viability ([1]; first compound 0.8 µM) was 0.643. It also gave a relative viability ([1]; first compound 2.53 µM) of 0.231, a relative viability ([1]; first compound 8 µM) of 0.0598 and a relative viability ([2]; first compound 0.0005 µM) of 1.03. It also gave a relative viability ([2]; first compound 0.001581 µM) of 1.04, a relative viability ([2]; first compound 0.005 µM) of 1.14 and a relative viability ([2]; first compound 0.01581 µM) of 1.01. It also gave a relative viability ([3]; first compound 0.08 µM) of 0.977, a relative viability ([3]; first compound 0.253 µM) of 1.03 and a relative viability ([3]; first compound 0.8 µM) of 1.52. For the same cell line, the relative viability ([3]; first compound 2.53 µM) was 0.461, the relative viability ([3]; first compound 8 µM) was 0.12 and the relative viability ([4]; first compound 0.0005 µM) was 1.06. For the same cell line, the relative viability ([4]; first compound 0.001581 µM) was 1.07, the relative viability ([4]; first compound 0.005 µM) was 1.24 and the relative viability ([4]; first compound 0.01581 µM) was 0.983.
NCI-H322M showed a relative viability ([1]; first compound 0.08 µM) of 0.654, a relative viability ([1]; first compound 0.253 µM) of 0.695 and a relative viability ([1]; first compound 0.8 µM) of 0.826. For the same cell line, the relative viability ([1]; first compound 2.53 µM) was 0.641, the relative viability ([1]; first compound 8 µM) was 0.488 and the relative viability ([2]; first compound 0.0005 µM) was 1.24. It also gave a relative viability ([2]; first compound 0.001581 µM) of 1.37, a relative viability ([2]; first compound 0.005 µM) of 1.04 and a relative viability ([2]; first compound 0.01581 µM) of 0.625. It also gave a relative viability ([3]; first compound 0.08 µM) of 0.811, a relative viability ([3]; first compound 0.253 µM) of 0.807 and a relative viability ([3]; first compound 0.8 µM) of 0.774. The relative viability ([3]; first compound 2.53 µM) was 0.375, the relative viability ([3]; first compound 8 µM) was 0.457 and the relative viability ([4]; first compound 0.0005 µM) was 0.995. It also gave a relative viability ([4]; first compound 0.001581 µM) of 1.03, a relative viability ([4]; first compound 0.005 µM) of 0.926 and a relative viability ([4]; first compound 0.01581 µM) of 0.925.
In the case of NCI-H1299, the relative viability ([1]; first compound 0.08 µM) is reported as 0.972, the relative viability ([1]; first compound 0.253 µM) is reported as 0.986 and the relative viability ([1]; first compound 0.8 µM) is reported as 0.957. For the same cell line, the relative viability ([1]; first compound 2.53 µM) was 1.05, the relative viability ([1]; first compound 8 µM) was 0.731 and the relative viability ([2]; first compound 0.0005 µM) was 1.02. It also gave a relative viability ([2]; first compound 0.001581 µM) of 1.02, a relative viability ([2]; first compound 0.005 µM) of 1.04 and a relative viability ([2]; first compound 0.01581 µM) of 1.04. For the same cell line, the relative viability ([3]; first compound 0.08 µM) was 1, the relative viability ([3]; first compound 0.253 µM) was 1.02 and the relative viability ([3]; first compound 0.8 µM) was 1.11. The relative viability ([3]; first compound 2.53 µM) was 1.12, the relative viability ([3]; first compound 8 µM) was 1.09 and the relative viability ([4]; first compound 0.0005 µM) was 0.986. The relative viability ([4]; first compound 0.001581 µM) was 1.14, the relative viability ([4]; first compound 0.005 µM) was 0.975 and the relative viability ([4]; first compound 0.01581 µM) was 0.941.
Work on NCI-H2228 yielded a relative viability ([1]; first compound 0.08 µM) of 0.487, a relative viability ([1]; first compound 0.253 µM) of 0.731 and a relative viability ([1]; first compound 0.8 µM) of 0.848. The relative viability ([1]; first compound 2.53 µM) was 0.341, the relative viability ([1]; first compound 8 µM) was 0.238 and the relative viability ([2]; first compound 0.0005 µM) was 0.788. The relative viability ([2]; first compound 0.001581 µM) was 1.2, the relative viability ([2]; first compound 0.005 µM) was 1.12 and the relative viability ([2]; first compound 0.01581 µM) was 1.11. It also gave a relative viability ([3]; first compound 0.08 µM) of 0.702, a relative viability ([3]; first compound 0.253 µM) of 0.735 and a relative viability ([3]; first compound 0.8 µM) of 0.9. For the same cell line, the relative viability ([3]; first compound 2.53 µM) was 0.618, the relative viability ([3]; first compound 8 µM) was 0.161 and the relative viability ([4]; first compound 0.0005 µM) was 0.668. For the same cell line, the relative viability ([4]; first compound 0.001581 µM) was 0.812, the relative viability ([4]; first compound 0.005 µM) was 0.633 and the relative viability ([4]; first compound 0.01581 µM) was 0.951.
IA-LM showed a relative viability ([1]; first compound 0.08 µM) of 0.835, a relative viability ([1]; first compound 0.253 µM) of 1.03 and a relative viability ([1]; first compound 0.8 µM) of 0.913. The relative viability ([1]; first compound 2.53 µM) was 0.986, the relative viability ([1]; first compound 8 µM) was 0.882 and the relative viability ([2]; first compound 0.0005 µM) was 0.746. The relative viability ([2]; first compound 0.001581 µM) was 0.807, the relative viability ([2]; first compound 0.005 µM) was 0.872 and the relative viability ([2]; first compound 0.01581 µM) was 0.491. The relative viability ([3]; first compound 0.08 µM) was 0.888, the relative viability ([3]; first compound 0.253 µM) was 0.999 and the relative viability ([3]; first compound 0.8 µM) was 1. The relative viability ([3]; first compound 2.53 µM) was 0.962, the relative viability ([3]; first compound 8 µM) was 0.81 and the relative viability ([4]; first compound 0.0005 µM) was 0.531. The relative viability ([4]; first compound 0.001581 µM) was 0.866, the relative viability ([4]; first compound 0.005 µM) was 0.437 and the relative viability ([4]; first compound 0.01581 µM) was 0.553.
In the case of NCI-H650, the relative viability ([1]; first compound 0.08 µM) is reported as 0.342, the relative viability ([1]; first compound 0.253 µM) is reported as 0.42 and the relative viability ([1]; first compound 0.8 µM) is reported as 0.435. It also gave a relative viability ([1]; first compound 2.53 µM) of 0.313, a relative viability ([1]; first compound 8 µM) of 0.301 and a relative viability ([2]; first compound 0.0005 µM) of 0.622. For the same cell line, the relative viability ([2]; first compound 0.001581 µM) was 0.817, the relative viability ([2]; first compound 0.005 µM) was 0.669 and the relative viability ([2]; first compound 0.01581 µM) was 0.833. The relative viability ([3]; first compound 0.08 µM) was 1.25, the relative viability ([3]; first compound 0.253 µM) was 1.04 and the relative viability ([3]; first compound 0.8 µM) was 1.16. For the same cell line, the relative viability ([3]; first compound 2.53 µM) was 0.87, the relative viability ([3]; first compound 8 µM) was 0.802 and the relative viability ([4]; first compound 0.0005 µM) was 0.832. For the same cell line, the relative viability ([4]; first compound 0.001581 µM) was 1.3, the relative viability ([4]; first compound 0.005 µM) was 0.883 and the relative viability ([4]; first compound 0.01581 µM) was 1.16.
In the case of NCI-H2085, the relative viability ([1]; first compound 0.08 µM) is reported as 0.79, the relative viability ([1]; first compound 0.253 µM) is reported as 0.823 and the relative viability ([1]; first compound 0.8 µM) is reported as 0.788. The relative viability ([1]; first compound 2.53 µM) was 0.738, the relative viability ([1]; first compound 8 µM) was 0.458 and the relative viability ([2]; first compound 0.0005 µM) was 1. The relative viability ([2]; first compound 0.001581 µM) was 1.12, the relative viability ([2]; first compound 0.005 µM) was 1.08 and the relative viability ([2]; first compound 0.01581 µM) was 1.17. The relative viability ([3]; first compound 0.08 µM) was 0.971, the relative viability ([3]; first compound 0.253 µM) was 1.02 and the relative viability ([3]; first compound 0.8 µM) was 1.05. It also gave a relative viability ([3]; first compound 2.53 µM) of 0.829, a relative viability ([3]; first compound 8 µM) of 0.612 and a relative viability ([4]; first compound 0.0005 µM) of 0.907. For the same cell line, the relative viability ([4]; first compound 0.001581 µM) was 0.959, the relative viability ([4]; first compound 0.005 µM) was 0.915 and the relative viability ([4]; first compound 0.01581 µM) was 0.918.
